Data taken from publication PMC2997755 (Clinical cancer research : an official journal of the …, 2009).
Where two headings read alike, the source gives them in different places.

Assays:
[1] = Phase I safety and tolerability: DLTs, MTD, adverse events; details: sequential schedule dose level -1b; days 6-12, with decitabine 10 mg/m^2/day on days 1-5
[2] = cited from earlier work
[3] = Vorinostat serum pharmacokinetics, cycle 1; type: in vivo; details: for CL/F / AUC(0-inf) / AUC(0-t) / Cmax / half-life: mean (St dev); for AUC(0-inf) / AUC(0-t) / Cmax / half-life: human, serum, oral; for AUC(0-inf): AUCinf; for AUC(0-t): AUCt
[4] = human, in vivo
clinical = type: in vivo; details: for AUC(0-inf) / AUC(0-t) / clearance / Cmax / half-life: human, plasma
[5] = 100 mg, Sequential schedule, 100 mg BID, day 9 of cycle 1
[6] = 200 mg, Concurrent schedule, 200 mg BID, day 4 of cycle 1
[7] = 200 mg, Sequential schedule, 200 mg BID, day 9 of cycle 1
[8] = 200 mg, Sequential schedule, 200 mg TID, day 9 of cycle 1
[9] = 200 mg, Concurrent schedule, 200 mg TID, day 4 of cycle 1

Compound: O=C(CCCCCCC(=O)Nc1ccccc1)NO [vorinostat, suberoylanilide hydroxamic acid]
- RP2D (recommended phase II dose) [1]: 200 mg twice daily
- maximum tolerated dose, monotherapy ([2]; patients with hematologic malignancies): 250 mg orally thrice a day for 14 days every 21 days
- maximum tolerated dose, monotherapy ([2]; patients with solid tumors): 200 mg orally twice a day continuously
- Cmax, AUCinf and AUCt, concurrent versus sequential schedule ([3]; 200mg BID dose level, p 0.09, 0.004 and 0.0005): lower in the concurrent schedule
- CL/F ([3]; Concurrent schedule, 200 mg BID, day 4 of cycle 1): 5.3 (2.3) ml/min
- CL/F ([3]; Sequential schedule, 100 mg BID, day 9 of cycle 1): 4.3(2.3) ml/min
- CL/F ([3]; Sequential schedule, 200 mg BID, day 9 of cycle 1): 3(0.7) ml/min
- CL/F ([3]; Sequential schedule, 200 mg TID, day 9 of cycle 1): 4(3.7) ml/min
- AUC(0-inf) [3, 5]: 0.446 µg·h/mL
- AUC(0-t) [3, 5]: 0.424 µg·h/mL
- Cmax [3, 5]: 0.165 µg/mL
- half-life ([3]; 100 mg, t1/2, Sequential schedule, 100 mg BID, day 9 of cycle 1): 83.4 min
- AUC(0-inf) [3, 6]: 0.708 µg·h/mL
- AUC(0-inf) [3, 7]: 1.18 µg·h/mL
- AUC(0-inf) [3, 8]: 1.35 µg·h/mL
- AUC(0-t) [3, 6]: 0.573 µg·h/mL
- AUC(0-t) [3, 9]: 0.883 µg·h/mL
- AUC(0-t) [3, 7]: 1.02 µg·h/mL
- AUC(0-t) [3, 8]: 1.09 µg·h/mL
- Cmax [3, 6]: 0.214 µg/mL
- Cmax [3, 9]: 0.227 µg/mL
- Cmax [3, 7]: 0.313 µg/mL
- half-life ([3]; 200 mg, t1/2, Concurrent schedule, 200 mg BID, day 4 of cycle 1): 143 min
- half-life ([3]; 200 mg, t1/2, Sequential schedule, 200 mg BID, day 9 of cycle 1): 153 min
- half-life ([3]; 200 mg, t1/2, Sequential schedule, 200 mg TID, day 9 of cycle 1): 103 min
- Dose proportionality of AUC and Cmax after a single administration ([3]; sequential schedule, dose increased from 100 mg to 200 mg): increased proportionaly

Compound: Nc1ncn([C@H]2C[C@H](O)[C@@H](CO)O2)c(=O)n1 [decitabine, 5-aza-2'-deoxycytidine]
- RP2D (recommended phase II dose) [4]: 10 mg/m^2/day
- Pharmacokinetic parameters on day 1 versus day 5 within the same dose level (clinical; either schedule): No significant differences
- AUC(0-inf) (clinical; intravenous, 10 mg/m2, AUCinf, Concurrent schedule, 10 mg/m^2, Day 1, mean (St dev)): 0.0776 µg·h/mL
- AUC(0-inf) (clinical; intravenous, 10 mg/m2, AUCinf, Concurrent schedule, 10 mg/m^2, Day 5, mean (St dev)): 0.0574 µg·h/mL
- AUC(0-inf) (clinical; intravenous, 10 mg/m2, AUCinf, Sequential schedule, 10 mg/m^2, Day 1, mean (St dev)): 0.0484 µg·h/mL
- AUC(0-inf) (clinical; intravenous, 10 mg/m2, AUCinf, Sequential schedule, 10 mg/m^2, Day 5, mean (St dev)): 0.0578 µg·h/mL
- AUC(0-t) (clinical; intravenous, 10 mg/m2, AUCt, Concurrent schedule, 10 mg/m^2, Day 1, mean (St dev)): 0.0758 µg·h/mL
- AUC(0-t) (clinical; intravenous, 10 mg/m2, AUCt, Concurrent schedule, 10 mg/m^2, Day 5, mean (St dev)): 0.0563 µg·h/mL
- AUC(0-t) (clinical; intravenous, 10 mg/m2, AUCt, Sequential schedule, 10 mg/m^2, Day 5, mean (St dev)): 0.0558 µg·h/mL
- clearance (clinical; intravenous, 10 mg/m2, CL, Concurrent schedule, 10 mg/m^2, Day 1, mean (St dev)): 4670 mL/min
- clearance (clinical; intravenous, 10 mg/m2, CL, Concurrent schedule, 10 mg/m^2, Day 5, mean (St dev)): 5570 mL/min
- clearance (clinical; intravenous, 10 mg/m2, CL, Sequential schedule, 10 mg/m^2, Day 1, mean (St dev)): 7600 mL/min
- clearance (clinical; intravenous, 10 mg/m2, CL, Sequential schedule, 10 mg/m^2, Day 5, mean (St dev)): 6130 mL/min
- Cmax (clinical; intravenous, 10 mg/m2, Cmax, Concurrent schedule, 10 mg/m^2, Day 1, mean (St dev)): 0.0886 µg/mL
- Cmax (clinical; intravenous, 10 mg/m2, Cmax, Concurrent schedule, 10 mg/m^2, Day 5, mean (St dev)): 0.0629 µg/mL
- Cmax (clinical; intravenous, 10 mg/m2, Cmax, Sequential schedule, 10 mg/m^2, Day 1, mean (St dev)): 0.0575 µg/mL
- Cmax (clinical; intravenous, 10 mg/m2, Cmax, Sequential schedule, 10 mg/m^2, Day 5, mean (St dev)): 0.0675 µg/mL
- half-life (clinical; intravenous, 10 mg/m2, t1/2, Concurrent schedule, 10 mg/m^2, Day 1, mean (St dev)): 16.2 min
- half-life (clinical; intravenous, 10 mg/m2, t1/2, Concurrent schedule, 10 mg/m^2, Day 5, mean (St dev)): 16.2 min
- half-life (clinical; intravenous, 10 mg/m2, t1/2, Sequential schedule, 10 mg/m^2, Day 1, mean (St dev)): 20.4 min
- half-life (clinical; intravenous, 10 mg/m2, t1/2, Sequential schedule, 10 mg/m^2, Day 5, mean (St dev)): 22.8 min
- AUC(0-inf) (clinical; intravenous, 15 mg/m2, AUCinf, Sequential schedule, 15 mg/m^2, Day 1, mean (St dev)): 0.116 µg·h/mL
- AUC(0-inf) (clinical; intravenous, 15 mg/m2, AUCinf, Sequential schedule, 15 mg/m^2, Day 5, mean (St dev)): 0.116 µg·h/mL
- AUC(0-t) (clinical; intravenous, 15 mg/m2, AUCt, Sequential schedule, 15 mg/m^2, Day 1, mean (St dev)): 0.112 µg·h/mL
- AUC(0-t) (clinical; intravenous, 15 mg/m2, AUCt, Sequential schedule, 15 mg/m^2, Day 5, mean (St dev)): 0.114 µg·h/mL
- clearance (clinical; intravenous, 15 mg/m2, CL, Sequential schedule, 15 mg/m^2, Day 1, mean (St dev)): 5670 mL/min
- clearance (clinical; intravenous, 15 mg/m2, CL, Sequential schedule, 15 mg/m^2, Day 5, mean (St dev)): 3930 mL/min
- Cmax (clinical; intravenous, 15 mg/m2, Cmax, Sequential schedule, 15 mg/m^2, Day 1, mean (St dev)): 0.129 µg/mL
- Cmax (clinical; intravenous, 15 mg/m2, Cmax, Sequential schedule, 15 mg/m^2, Day 5, mean (St dev)): 0.142 µg/mL
- half-life (clinical; intravenous, 15 mg/m2, t1/2, Sequential schedule, 15 mg/m^2, Day 1, mean (St dev)): 22.8 min
- half-life (clinical; intravenous, 15 mg/m2, t1/2, Sequential schedule, 15 mg/m^2, Day 5, mean (St dev)): 19.8 min
- AUC(0-inf) (clinical; intravenous, 20 mg/m2, AUCinf, Sequential schedule, 20 mg/m^2, Day 1, mean (St dev)): 0.119 µg·h/mL
- AUC(0-inf) (clinical; intravenous, 20 mg/m2, AUCinf, Sequential schedule, 20 mg/m^2, Day 5, mean (St dev)): 0.165 µg·h/mL
- AUC(0-t) (clinical; intravenous, 20 mg/m2, AUCt, Sequential schedule, 20 mg/m^2, Day 1, mean (St dev)): 0.115 µg·h/mL
- AUC(0-t) (clinical; intravenous, 20 mg/m2, AUCt, Sequential schedule, 20 mg/m^2, Day 5, mean (St dev)): 0.161 µg·h/mL
- clearance (clinical; intravenous, 20 mg/m2, CL, Sequential schedule, 20 mg/m^2, Day 1, mean (St dev)): 5280 mL/min
- clearance (clinical; intravenous, 20 mg/m2, CL, Sequential schedule, 20 mg/m^2, Day 5, mean (St dev)): 3920 mL/min
- Cmax (clinical; intravenous, 20 mg/m2, Cmax, Sequential schedule, 20 mg/m^2, Day 1, mean (St dev)): 0.135 µg/mL
- Cmax (clinical; intravenous, 20 mg/m2, Cmax, Sequential schedule, 20 mg/m^2, Day 5, mean (St dev)): 0.198 µg/mL
- half-life (clinical; intravenous, 20 mg/m2, t1/2, Sequential schedule, 20 mg/m^2, Day 1, mean (St dev)): 21.6 min
- half-life (clinical; intravenous, 20 mg/m2, t1/2, Sequential schedule, 20 mg/m^2, Day 5, mean (St dev)): 25.2 min
- half-life (clinical; iv, half-life, patients, 1-hour intravenous infusion): ~20 min
- Dose proportionality of Cmax and AUC (clinical; sequential schedule, increasing doses of decitabine): did not produce dose proportional increases
